Data as given in patent US7482360B2, “Fused tetracyclic mGluR1 antagonists as therapeutic agents” (Schering Corporation, priority 2005, dated 2009).
Read-outs that look alike come from different tables or passages of the source.

Target: T1, hmGluR1 receptor (Homo sapiens, UniProt Q13255)
T1 construct: expressed in transfected cells; host or cells: CHO
Experiment: IC50 Determination: intracellular calcium mobilization (FLIPR) in a CHO cell line stably expressing hmGluR1 receptor, against Quisqualate
Type: cell-based
Settings: CHO cells expressing hmGluR1, against Quisqualate 1 μM (EC80), compounds added 10 minutes before agonist
Method: A CHO cell line stably expressing hmGluR1 receptor was established. One day prior to assay, cells were split in growth media at concentration of 50,000 cells/well in a volume of 100 μl and seeded into black clear-bottom 96-well plates. After two to six hours, when cells were well attached to the plate, growth medium was replaced with assay medium (100 μL) consisting of DMEM high glucose, supplemented with GPT (1 U/mL) and sodium pyruvate, 1 mM. Following overnight incubation, medium was discarded and cells were loaded for 2 hours with dye from the Calcium 3 Assay Reagent Kit (Molecular Devices, # R8033), prepared according to manufacturers' instructions. A 96-tip pipettor/fluorometric imaging plate reader (FLIPR 384; Molecular Devices) was used and intracellular calcium mobilization was measured by increases in fluorescence upon agonist Quisqualate stimulation following 6 sec-baseline measurement. Test compounds were added 10 minutes before Quisqualate. IC50 determinations for tested compounds were generated against Quisqualate 1 μM corresponding to EC80 value in a standard dose response curve.

T1 sequence (Q13255 19-1194): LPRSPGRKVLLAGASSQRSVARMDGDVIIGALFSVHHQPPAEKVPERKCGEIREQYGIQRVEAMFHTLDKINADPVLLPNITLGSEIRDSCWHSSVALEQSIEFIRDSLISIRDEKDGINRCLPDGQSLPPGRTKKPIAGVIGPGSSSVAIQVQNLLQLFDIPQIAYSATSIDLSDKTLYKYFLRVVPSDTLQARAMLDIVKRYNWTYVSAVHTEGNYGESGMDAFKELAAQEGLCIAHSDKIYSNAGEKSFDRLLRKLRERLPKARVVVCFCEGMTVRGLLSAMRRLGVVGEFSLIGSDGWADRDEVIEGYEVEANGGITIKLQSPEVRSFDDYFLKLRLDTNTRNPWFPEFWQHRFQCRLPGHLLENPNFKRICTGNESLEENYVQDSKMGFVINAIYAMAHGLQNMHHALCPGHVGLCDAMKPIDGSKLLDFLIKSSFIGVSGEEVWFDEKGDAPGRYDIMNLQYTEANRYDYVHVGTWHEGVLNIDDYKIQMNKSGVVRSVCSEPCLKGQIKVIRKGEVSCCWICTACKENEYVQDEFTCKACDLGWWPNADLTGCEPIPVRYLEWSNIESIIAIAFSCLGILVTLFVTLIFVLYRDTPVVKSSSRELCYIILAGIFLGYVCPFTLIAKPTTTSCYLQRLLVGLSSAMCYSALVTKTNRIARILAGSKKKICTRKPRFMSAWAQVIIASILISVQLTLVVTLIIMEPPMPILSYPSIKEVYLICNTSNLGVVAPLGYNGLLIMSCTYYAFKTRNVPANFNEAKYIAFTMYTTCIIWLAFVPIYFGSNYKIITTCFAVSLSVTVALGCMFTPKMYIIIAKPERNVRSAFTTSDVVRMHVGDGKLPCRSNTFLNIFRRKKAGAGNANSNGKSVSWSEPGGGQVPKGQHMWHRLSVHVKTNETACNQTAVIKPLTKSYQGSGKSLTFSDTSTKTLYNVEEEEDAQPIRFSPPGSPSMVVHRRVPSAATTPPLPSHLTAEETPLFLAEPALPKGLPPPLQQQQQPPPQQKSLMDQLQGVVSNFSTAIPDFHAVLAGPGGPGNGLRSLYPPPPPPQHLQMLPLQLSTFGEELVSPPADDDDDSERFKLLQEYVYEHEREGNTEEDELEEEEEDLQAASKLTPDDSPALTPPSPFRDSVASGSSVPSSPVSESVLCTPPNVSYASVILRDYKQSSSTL

Row | SMILES | IC50 (read-out: mGluR1 IC50 rating) | IC50 (read-out: mGluR1 IC50)
1 | Cn1ncc2cnc3sc4c(=O)n(C5CCCCC5)cnc4c3c21 [Compound 4] | 100 to 1000 nM | –
2 | Cn1ccc2cnc3sc4c(=O)n(C5CCCCC5)cnc4c3c21 [Compound 6] | 20 to 100 nM | –
3 | Cn1cnc2cnc3sc4c(=O)n(C5CCCCC5)cnc4c3c21 [Compound 9] | 20 to 100 nM | –
4 | O=c1c2sc3ncc4nc[nH]c4c3c2ncn1C1CCCCC1 [Compound 12] | 20 to 100 nM | 23 nM
5 | O=c1c2sc3ncc4nn[nH]c4c3c2ncn1C1CCCCC1 [Compound 13] | 100 to 1000 nM | –
6 | O=c1c2sc3ncc4cn[nH]c4c3c2ncn1-c1ccc(Cl)cc1 [Compound 20a] | 20 to 100 nM | 38 nM
7 | Cc1ccc(-n2cnc3c(sc4ncc5cn[nH]c5c43)c2=O)cc1 [Compound 20b] | < 20 nM | 17 nM
8 | Cc1ccc(-n2cnc3c(sc4ncc5c(c43)OCC5)c2=O)cc1 [Compound 24] | 100 to 1000 nM | –
9 | Cc1ccc(-n2cnc3c(sc4ncc5cc[nH]c5c43)c2=O)cc1 [Compound 27a] | < 20 nM | 0.7 nM
10 | COc1ccc(-n2cnc3c(sc4ncc5cc[nH]c5c43)c2=O)cc1 [Compound 27b] | < 20 nM | 4.9 nM
11 | Cc1ccc(-n2cnc3c(sc4ncc5sc(=S)[nH]c5c43)c2=O)cc1 [Compound 28] | 100 to 1000 nM | –
12 | CSc1nc2c(cnc3sc4c(=O)n(-c5ccc(C)cc5)cnc4c32)s1 [Compound 29] | 100 to 1000 nM | –
13 | Cc1ccc(-n2cnc3c(sc4ncc5sc(=O)[nH]c5c43)c2=O)cc1 [Compound 30] | 100 to 1000 nM | –
14 | Cc1ccc(-n2cnc3c(sc4ncc5ccn(C)c5c43)c2=O)cc1 [Compound 31] | 20 to 100 nM | –
15 | O=c1c2sc3ncc4cc[nH]c4c3c2ncn1-c1ccc(Cl)cc1 [Compound 34] | < 20 nM | 0.4 nM
16 | O=c1c2sc3ncc4nc[nH]c4c3c2ncn1-c1ccc(Cl)cc1 [Compound 35] | < 20 nM | 6 nM

Row | SMILES | IC50 (read-out: mGluR1 IC50 rating) | IC50 (read-out: mGluR1 IC50)
17 | Cn1cnc2cnc3sc4c(=O)n(-c5ccc(Cl)cc5)cnc4c3c21 [Compound 36] | < 20 nM | 9.8 nM
18 | O=c1c2sc3ncc(Br)c(NCCO)c3c2ncn1-c1ccc(Cl)cc1 [Compound 37a] | < 20 nM | 14.2 nM
19 | C[C@@H](O)CNc1c(Br)cnc2sc3c(=O)n(-c4ccc(Cl)cc4)cnc3c12 [Compound 37b] | > 1000 nM | –
20 | C[C@H](O)CNc1c(Br)cnc2sc3c(=O)n(-c4ccc(Cl)cc4)cnc3c12 [Compound 37c] | > 1000 nM | –
21 | C[C@H](CO)Nc1c(Br)cnc2sc3c(=O)n(-c4ccc(Cl)cc4)cnc3c12 [Compound 37d] | > 1000 nM | –
22 | C[C@@H](CO)Nc1c(Br)cnc2sc3c(=O)n(-c4ccc(Cl)cc4)cnc3c12 [Compound 37e] | > 1000 nM | –
23 | Cc1ccc(-n2cnc3c(sc4ncc(Br)c(N(C)CCO)c43)c2=O)cc1 [Compound 37f] | 100 to 1000 nM | –
24 | O=c1c2sc3ncc4c(c3c2ncn1-c1ccc(Cl)cc1)NCCO4 [Compound 38a] | < 20 nM | 2.9 nM
25 | C[C@@H]1CNc2c(cnc3sc4c(=O)n(-c5ccc(Cl)cc5)cnc4c23)O1 [Compound 38b] | < 20 nM | 1.4 nM
26 | C[C@H]1CNc2c(cnc3sc4c(=O)n(-c5ccc(Cl)cc5)cnc4c23)O1 [Compound 38c] | < 20 nM | 2.2 nM
27 | C[C@@H]1COc2cnc3sc4c(=O)n(-c5ccc(Cl)cc5)cnc4c3c2N1 [Compound 38d] | 20 to 100 nM | –
28 | C[C@H]1COc2cnc3sc4c(=O)n(-c5ccc(Cl)cc5)cnc4c3c2N1 [Compound 38e] | < 20 nM | 12 nM
29 | Cc1ccc(-n2cnc3c(sc4ncc5c(c43)N(C)CCO5)c2=O)cc1 [Compound 38f] | < 20 nM | 5.7 nM
30 | Cc1ccc(-n2cnc3c(sc4ncc5c(c43)NC[C@@H](C)O5)c2=O)cc1 [Compound 38g] | < 20 nM | 5.3 nM
31 | Cc1ccc(-n2cnc3c(sc4ncc5c(c43)NCCO5)c2=O)cc1 [Compound 38h] | < 20 nM | 2.2 nM
32 | COc1ccc(-n2cnc3c(sc4ncc5c(c43)NCCO5)c2=O)cc1 [Compound 38i] | < 20 nM | 2.5 nM
